In paper PMC8470334, “N-Heterocyclic Carbene Iron Complexes as Anticancer Agents: In Vitro and In Vivo Biological Studies” (Molecules, 2021):

Assays:
[1] = system: A2780 cell line; experiment: MTS cell viability assay (CellTiter 96), A2780; format: cell-based, human; settings: for IC50: A2780, 48 h exposure, MTS, mean ± SEM; for SI (selectivity index): IC50 of fibroblasts / IC50 of A2780
Experimental: (§1) The in vitro cytotoxic potential of complexes Fe1 and Fe2 was evaluated through the CellTiter 96®Aqueous Non-Radioactive Cell Proliferation Assay using MTS, as described in Section 3.3.2 [26].
(§2) The antiproliferative activity of both complexes was evaluated through the exposure of the A2780 cell line to 0.01–50 µM of complexes Fe1 or Fe2 (Figure 3A) and of the HCT116 cell line to 0.1–50 µM of complexes Fe1 or Fe2 (Figure 3B) for 48 h.
(§3) Human colorectal carcinoma (HCT116) and normal dermal fibroblasts cell lines were grown in Dulbecco’s modified Eagle’s medium (DMEM) (Invitrogen Corp., Grand Island, NY, USA) supplemented with 10% (v/v) foetal bovine serum and 1% (v/v) antibiotic/antimycotic solution (Invitrogen Corp.). Human ovarian carcinoma (A2780) cell line was cultivated using the Roswell Park Memorial Institute (RPMI) medium supplemented as DMEM. The supplemented medium is named complete medium. Cells were grown in an incubator with a humidified atmosphere at 5% (v/v) CO2 and 37 °C. All cell lines were purchase from ATCC (ATCC®, American Type Culture Collection, Washington, DC, USA).
(§4) The evaluation of the cytotoxic potential of the complexes Fe1 and Fe2 was obtained through the measurement in vitro of the antiproliferative activity of these complexes. Cells were plated in 96-well plates at 7.5 × 10^4 cells/mL and incubated at 37 °C with 5% (v/v) CO2. After 24 h, the culture medium was replaced with a fresh medium containing 0.01–100 µM of complexes Fe1 or Fe2 and incubated for 48 h, as described previously. DMSO 0.1% (v/v) was used as the vehicle control for all cell lines. The fibroblasts cell line was used as a control of cytotoxicity of the complexes for healthy cells. Cisplatin was used as a positive control (a common chemotherapeutic agent). Cell viability was evaluated using CellTiter 96®Aqueous Non-Radioactive Cell Proliferation Assay (Promega, Madison, WI, USA) using 3-(4,5-dimethylthiazol-2-yl)-5-(3-carboxymethoxyphenyl)-2-(4-sulfophenyl)-2H-tetrazolium, inner salt (MTS), as described previously. In metabolically active cells, enzymes present in the mitochondria catalyse a reaction in which NADPH/ NADH is produced. These enzymes can reduce the MTS reagent into a brownish-coloured product called formazan, which can be quantified by measuring the absorbance at 490 nm. The quantity of product produced is directly proportional to the number of viable cells in culture. The amount of formazan product formed was measured with a Bio-Rad Microplate Reader Model 680 (Bio-Rad, Hercules, CA, USA). Half maximal inhibitory concentration (IC50) was calculated using GraphPad Prism 6 (GraphPad Software, La Jolla, CA, USA). Selectivity index (SI) was calculated for both tumour cell lines by dividing the IC50 of fibroblasts with the IC50 of HCT116 or A2780 for complexes Fe1 and Fe2.

[2] = system: HCT116 cell line; experiment: MTS cell viability assay (CellTiter 96), HCT116; format: cell-based, human; settings: for IC50: HCT116, 48 h exposure, MTS, mean ± SEM; for SI (selectivity index): IC50 of fibroblasts / IC50 of HCT116
Experimental: as §1, §2, §3, §4

[3] = Solubility in buffer aqueous media; format: physicochemical; settings: fully soluble on adding DMSO (final not above 0.1% v/v)
[4] = system: zebrafish embryos; experiment: Fish embryo acute toxicity test (FET); format: in vivo, zebrafish (Danio rerio); settings: for LC50: early blastula stage up to 72 hpf, Logit and Probit analyses; for LOEC (lowest observed effect concentration) / NOEC (no observed effect concentration): up to 72 hpf
Experimental: In addition, the mortality distribution obtained for each compound allowed the accurate estimation of the LC50 (Figure 7). […] For this reason, Fe1 and Fe2 compounds were analysed in vivo using colorectal HCT116 zebrafish xenograft.
The wild-type zebrafish were housed in a water recirculation system under controlled physicochemical conditions of temperature (26 ± 2 °C), pH (7–7.5), and conductivity (400–600 µS/cm). The fertilised eggs were collected after natural spawning and housed in Petri dishes until their use. Next, eggs were exposed to Fe1 and Fe2 and dissolved in water containing 1% DMSO. Then, toxicological analyses were carried out based on the approved standard OECD TG 236—fish embryo toxicity test (FET), with modifications. For the study, four replicates of 12 embryos were distributed for each of the 5 concentrations tested for compounds; for Fe1, the concentrations used were 15, 20, 25, 30, 35 µM), and for Fe2 were 1, 5, 10, 15, 20 µM. The performed zebrafish toxicity experiments were approved by the animal care and use committee of the University of Santiago de Compostela and the standard protocols of Spain (CEEA-LU-003 and […]). The toxicity results data were analysed by probit analysis using ToxRat Software (ToxRat Solutions. 2003. ToxRat. Software for statistical analysis of bioassays. Alsdorf, Germany).

[5] = system: human HCT116 colorectal cancer cells; experiment: Zebrafish embryo xenograft assay; format: in vivo; settings: compared with control
Experimental: HCT116 human colorectal cancer cell line was incubated in standard conditions in a humidified incubator at 37 °C and 5% CO2 until a confluence of 70–80% was reached. Afterwards, the cells were concentrated and labelled with DiI and injected in the circulation (Duct of Cuvier) of 48 hpf zebrafish embryos in order to assay the proliferation in vivo of the cells exposed to Fe1 and Fe2. Fe1 and Fe2 (5 μM and 0.25 μM, respectively) were dissolved in the water at 1-day post injection (dpi) to allow the recovery of the embryos from the injection in the first 24 h and maintained until the end of the experiment at 3 dpi. Imaging of the embryos was performed at 1 dpi and 3 dpi to quantify the fluorescence and area of the cells in the caudal hematopoietic tissue (CHT) in the tail of the embryos, where cells invade and grow, and measure their proliferation over time to assess the inhibitory effect of the compounds assayed over the cells.
The results were calculated based on a comparison between 3 dpi and 1 dpi time points and normalised at 3 dpi against control conditions due to the nature of the lipophilic dye in the proliferation of the cells. […]
At 1 dpi, the embryos were imaged, and the compound (Fe1 and Fe2) was added to the water. […] Imaging of the embryos was performed using a fluorescence stereomicroscope (AZ-100, Nikon, Tokyo, Japan). […]

[6] = Stability in PBS by UV-visible spectrum; format: physicochemical; settings: PBS pH 7.0, room temperature, aerobic, over 48 h
Experimental: The stability of complexes Fe1 and Fe2 was evaluated over 48 h at room temperature by monitoring their UV–visible spectrum in PBS (pH 7.0) (Figure 2). […] Based on our previous works with Ru carbonyl metal complexes, we speculate that release of CO ligand, 2 in the case of Fe1 and 1 in the case of Fe2, may occur in the first 30 min, as the decrease profile is more pronounced for Fe1 with two CO ligands (Figure 2B,D). We could also speculate that, in the case of Fe1, both CO ligands might be replaced by water molecules, maintaining the previous charge on this novel Fe species (cationic), while in Fe2, the release of the CO ligand and replacement by water molecule would maintain this new Fe species neutral.
Complexes Fe1 and Fe2 solutions were prepared in 10 mM phosphate-buffered solution (PBS) containing 0.15 M NaCl (pH 7). All spectra were recorded for 48 h on a recorded with a Varian-Cary 100 Bio spectrophotometer (Agilent, Santa Clara, CA, USA), using a quartz cuvette with 1 cm path length in a wavelength range from 220 to 500 nm.

[7] = system: normal dermal fibroblasts; experiment: MTS cell viability assay (CellTiter 96), fibroblasts; format: cell-based, human; settings: 48 h exposure, mean ± SEM
Experimental: The antiproliferative effect of complexes Fe1 and Fe2 was also tested on a nontumor cell line, fibroblasts, to evaluate their antiproliferative activity in healthy cells. For that, a range of concentrations from 0.01 to 100 µM of both complexes was used (Figure 4). As previously observed for the tumour cell lines, a concentration-dependent reduction of cell viability is observed (Figure 3 and Figure 4).
Human colorectal carcinoma (HCT116) and normal dermal fibroblasts cell lines were grown in Dulbecco’s modified Eagle’s medium (DMEM) (Invitrogen Corp., Grand Island, NY, USA) supplemented with 10% (v/v) foetal bovine serum and 1% (v/v) antibiotic/antimycotic solution (Invitrogen Corp.). […]
The evaluation of the cytotoxic potential of the complexes Fe1 and Fe2 was obtained through the measurement in vitro of the antiproliferative activity of these complexes. […] Cell viability was evaluated using CellTiter 96®Aqueous Non-Radioactive Cell Proliferation Assay (Promega, Madison, WI, USA) using 3-(4,5-dimethylthiazol-2-yl)-5-(3-carboxymethoxyphenyl)-2-(4-sulfophenyl)-2H-tetrazolium, inner salt (MTS), as described previously. […] These enzymes can reduce the MTS reagent into a brownish-coloured product called formazan, which can be quantified by measuring the absorbance at 490 nm. The quantity of product produced is directly proportional to the number of viable cells in culture. […]

Row | Compound | IC50 [1] [µM] | IC50 [2] [µM] | solubility [3] | LC50 [4] [µM] | LOEC (lowest observed effect concentration) [4] [µM] | NOEC (no observed effect concentration) [4] [µM] | proliferation of HCT116 cells in vivo ([5]; 0.25 μM dissolved in the water from 1 dpi to 3 dpi) | SI (selectivity index) [1] | stability (360 nm band) [6] | IC50 [7] [µM] | SI (selectivity index) [2] | proliferation of HCT116 cells in vivo ([5]; 5 μM dissolved in the water from 1 dpi to 3 dpi)
1 | N.N.[Cl][Pt][Cl] [Cisplatin, reference compound] | 1.9 ± 0.2 | 15.6 ± 5.3 | – | – | – | – | – | – | – | – | – | –
2 | Cp(IMes)Fe(CO)I [Fe2] | 2.91 ± 0.51 | 3.26 ± 0.1 | insoluble in buffer aqueous media | 6.86 | 5 | 1 | reduce the proliferation of human HCT116 colorectal cancer cells in vivo | 14.4 | a lower decrease of the 360 nm peak intensity occurs within the first 30 min | 42 ± 0.75 | 12.9 | –
3 | [Cp(IMes)Fe(CO)2]I [Fe1] | 1.34 ± 0.25 | 0.87 ± 0.09 | insoluble in buffer aqueous media | 24.6 | 20 | 15 | – | 17.7 | rapidly transformed into a new Fe species that is then stable, at least, until 24 h | 23.61 ± 0.14 | 27.1 | reduce the proliferation of human HCT116 colorectal cancer cells in vivo
